Test system: hiPSC-CM / fibroblast graft (bioengineered tissue)
Experiment: ECG recording of bioengineered tissue on multi-electrode array with pharmacological perturbations
Format: cell-based, human
Settings: for change of heart rate of the construct: continuous ECG recording, FIG. 8; for change of QT interval / change of R-R interval (heart rate-equivalent): single bioengineered tissue on multi-electrode array vs baseline, FIG. 10
Procedure: Methods of graft engineering: Human dermal fibroblasts were cultured into a vicryl (polygalctin 910) knitted mesh until the mesh was fully confluent with fibroblasts. Human induced pluripotent stem cell derived cardiomyocytes (hiPSC-CMs) were seeded onto the fibroblasts grafts using centrifugal force (1300 rpms for 5 min). All cell cultures were maintained at […] and 5% CO2 with media changed every 24-48 hrs. Fibroblasts were maintained with 10% FBS in DMEM, hiPSC-CMs were maintained with RPMI+B27. Grafts were either used fresh or after cryopreservation. Fresh grafts were assayed 48 hrs after hiPSC-CM engraftment. Cryopreserved grafts were assayed 2 days post reconstitution. Axion System Methods: […] diameter circular grafts were transferred to the Axion culture well, hiPSC-CM side down and three small 5 mm×1 mm weights were placed on the surface to enhance contact with the electrodes. Cultures were maintained at 37° C. and 5% CO2. Data were obtained at baseline, and then with pharmacological perturbations. NeuroNexus Methods: 1.6 cm diameter circular grafts were placed hiPSC-CM side down on the recording array. Cultures were maintained at 37° C. but no control was available for CO2. […] To enhance contact, the volume of medium in the culture well was reduced from 1.5 ml to 0.25-0.5 ml. Data were obtained at baseline, and then with pharmacological perturbations.

| SMILES | change of heart rate of the construct | change of QT interval | change of R-R interval (heart rate-equivalent) |
| --- | --- | --- | --- |
| CC(C)NCC(O)c1ccc(O)c(O)c1 (stereo not drawn) [Isoproterenol] | increase | decrease | decrease |
| CC(C)(C)NC[C@H](O)COc1nsnc1N1CCOCC1 [Timolol] | decrease | increase | increase |

Source: patent US20210215674A1, “COMPOSITIONS AND METHODS FOR SCREENING COMPOUNDS FOR CARDIAC SIDE EFFECTS” (Arizona Board of Regents on Behalf of the University of …, priority 2018, published 2021)
